Reference: patent publication KR20210106935A, “암의 예방 또는 치료용 조성물” (연세대학교 산학협력단, priority 2019, dated 2021)

Tests used:
[1] = test system: GSPY1 cells (Thyroid cancer; Papillary); experiment: Cell proliferation IC50 (MTT), patient-derived papillary thyroid cancer cells GSPY1; type: cell-based; conditions: Homo sapiens, PTC stage IV, mean ± SEM, read-out: cell proliferation IC50 - half maximal inhibitory concentration
[2] = test system: GSPY2 cells (Thyroid cancer; Papillary); experiment: Cell proliferation IC50 (MTT), patient-derived papillary thyroid cancer cells GSPY2; type: cell-based; conditions: Homo sapiens, PTC stage IV, mean ± SEM, read-out: cell proliferation IC50 - half maximal inhibitory concentration
[3] = test system: GSPO1 cells (Thyroid cancer; Papillary); experiment: Cell proliferation IC50 (MTT), patient-derived papillary thyroid cancer cells GSPO1 (first line); type: cell-based; conditions: Homo sapiens, adult patient, by order of Table 3, PTC stage IV, mean ± SEM, read-out: cell proliferation IC50 - half maximal inhibitory concentration
[4] = test system: GSPO1 cells (Thyroid cancer; Papillary); experiment: Cell proliferation IC50 (MTT), patient-derived papillary thyroid cancer cells GSPO1 (second line of the same label); type: cell-based; conditions: Homo sapiens, adult patient, by order of Table 3, PTC stage IV, mean ± SEM, read-out: cell proliferation IC50 - half maximal inhibitory concentration
[5] = test system: cancer cells from young patients (어린 환자의 암 세포); experiment: Cell count over 7 days after drug treatment, young-patient papillary thyroid cancer cells; type: cell-based, human; conditions: unlike sorafenib, Figs. 4 to 7
[6] = test system: EMT protein (e.g. Snail, Zeb1) (EMT 단백질); experiment: EMT protein expression in young-patient-derived cancer cells; type: cell-based, human; conditions: young-patient-derived cancer cell lines
[7] = test system: FGFR signaling (e.g. PKC, MEK, p-ERK) (FGFR 시그널링); experiment: FGFR signaling in young-patient-derived cancer cells; type: cell-based, human; conditions: young-patient-derived cancer cell lines

CCN(CC)C(=S)SSC(=S)N(CC)CC [Disulfiram, 디에틸카르바모티올설파닐 N,N-디에틸카르바모디티오에이트]
IC50 [1]: 0.305 µM
IC50 [2]: 0.304 µM
IC50 [3]: 0.22 µM
IC50 [4]: 0.21 µM
inhibition of cancer proliferation (cell number) [5]: 어린 환자에게서 더 효과적으로 암의 증식을 억제하는 것을 확인할 수 있었다
effect on EMT protein expression [6]: EMT 단백질의 발현(예를 들면, Snail, Zeb1 등)을 억제(down-regulated)
inhibition of FGFR signaling [7]: FGFR 시그널링(예를 들면, PKC, MEK, p-ERK 등)을 억제

CNC(=O)c1cc(Oc2ccc(NC(=O)Nc3ccc(Cl)c(C(F)(F)F)c3)cc2)ccn1 [Sorafenib, 4-[4-[[[[4-클로로-3-(트리플루오르메틸)페닐]아미노]카르복실]아미노]페녹시]-N-메틸-2-피리딘카르복사미드]
IC50 [1]: 17.2 µM
IC50 [2]: 20.2 µM
IC50 [3]: 9.84 µM
IC50 [4]: 10.1 µM
effect on EMT protein expression [6]: FGFR을 기반으로 하는 EMT 단백질 발현에 영향을 주지 않는
